Results from patent US5366880A, “Antibiotic agent” (Merck & Co., Inc., priority 1993, dated 1994).
In brackets after ≈: the same amount, converted by molar mass. *1 amine or outer side, *2 acyl side, *3 side chain or, on linkers, in order; H or OH if unused. Where a SMILES comes first, the peptide text is derived from it. Bridges are numbered along the chain shown (N, C = ends). [ ]: non-standard residue; d: D form. The star is where a group is joined. ξ: configuration not given here. ξOrn(4,5-diOH) = O=C(C(CC(O)C(O)N[*:3])N[*:1])[*:2]; ξhTyr(βξ-OH,γξ-OH) = NC(C(=O)O)C(O)C(O)c1ccc(O)cc1; X2 = NC(=O)CC(O)C(N[*:1])C(=O)[*:2]; X3 = O=C(C1C(O)C(O)CN1[*:1])[*:2]; X1 = CCC(C)CC(C)CCCCCCCCC(=O)*; Hyp = O=C(O)[CH]1C[CH](O)CN1

How the values were obtained:
Candida pseudotropicalis = experiment: minimum fungicidal concentration (MFC), microbroth dilution assay, Candida pseudotropicalis; assay type: cell-based; settings: Kluyveromyces marxianus, 24 h; strain MY 1100; YNBD
Protocol: (§1) The antifungal properties may be illustrated with the minimum fungicidal concentration (MFC) determinations against certain Candida organisms in a microbroth dilution assay carried out in Yeast Nitrogen Base (Difco) with 1 percent dextrose (YNBD). In carrying out the assay, Compound I was solubilized in 10 percent dimethyl sulfoxide (DMSO) and diluted to 2560 μg/ml. The compound was then diluted to 256 μg/ml in YNBD. 0.15 ml of the suspension was dispensed to the top row of a 96-well plate (each well containing 0.15 ml of YNDB) resulting in a drug concentration of 128 μg/ml. Two-fold dilutions were then made from the top row to obtain final drug concentrations ranging from 128 to 0.06 μg/ml.
(§2) The yeast cultures, maintained on Sabouraud dextrose agar were transferred to YM broth (Difco) and incubated overnight at 35° C. with shaking (250 rpm). After incubation, each culture was diluted in sterile water to yield a final concentration of 1-5×10^6 colony forming units (CFU)/ml.
(§3) 96-well microplates were inoculated using a MIC-2000 (Dynatech) which delivers 1.5 μl per well yielding a final inoculum per well of 1.5-7.5×10^3 cells. […] The minimum inhibitory concentrations (MICs) were recorded as the lowest concentrations of drug showing no visible growth.
(§4) After recording the MIC, the plates were shaken to resuspend the cells. […] The inoculated trays were incubated 24 hours at 28° C. and then read. […]

Candida tropicalis = experiment: minimum fungicidal concentration (MFC), microbroth dilution assay, Candida tropicalis; assay type: cell-based; settings: 24 h, strain MY 1012, YNBD
Protocol: as §1, §2, §3, §4

Candida albicans = experiment: minimum fungicidal concentration (MFC), microbroth dilution assay, Candida albicans; assay type: cell-based; settings: 24 h
Protocol: as §1, §2
96-well microplates were inoculated using a MIC-2000 (Dynatech) which delivers 1.5 μl per well yielding a final inoculum per well of 1.5-7.5×10^3 cells. The microplates were incubated at 35° C. for 24 hours. The minimum inhibitory concentrations (MICs) were recorded as the lowest concentrations of drug showing no visible growth.
After recording the MIC, the plates were shaken to resuspend the cells. Thereafter, 1.5 μl samples from the wells in the 96-well microplate were transferred to a single well tray containing Sabouraud dextrose agar. The inoculated trays were incubated 24 hours at 28° C. and then read. The MFC is defined as the lowest concentration of drug showing no growth or less than 4 colonies per spot. The results (three samples) are seen in the following table: ______________________________________ Minimum Fungicidal Concentration (μg/ml) Fungi Compound Compound Strain No. IA IB ______________________________________ Candida albicans MY 1055 2 1 MY 1028 2 0.5 MY 1750 4 1 Candida tropicalis MY 1012 1 0.12 Candida pseudotropicalis MY 1100 4 2 ______________________________________

Pneumocystis carinii = experiment: effectiveness against Pneumocystis carinii pneumonia in immunosuppressed rats; assay type: in vivo, Sprague-Dawley rats; settings: subcutaneously twice daily for four days; for Reduction of Cysts / Log Mean # Cysts (± SEGM): rat lung; for Log Mean # Cysts (± SEGM): * significant (t-test); for Survivors: rats
Protocol: Compound I is useful for inhibiting or alleviating Pneumocystis carinii infections. In a representative study, the effectiveness of Compound I in rats were determined. Sprague-Dawley rats (weighing approximatley 250 g) were immunosuppressed with dexasone in the drinking water ([…]) and maintained on a low protein diet for 5 weeks to induce the development of Pneumocystis pneumonia from a latent infection. Before drug treatment 2 rats were sacrificed to confirm the presence of Pneumocystis carinii pneumonia (PCP); both rats had infections. The remaining rats (weighing approximately 150 g) were distributed into groups of 6 and injected twice daily for four days subcutaneously with compound in 0.25 ml of vehicle (10% DMSO in water or water). The control group of 5 rats received vehicle alone. All animals continued to receive dexasone in the drinking water and low protein diet during the drug treatment period. At the completion of treatment all animals were sacrificed, the lungs were removed and processed, and the extent of disease determined by microscopic analysis of stained slides. […] All groups were compared using the student t-test and results marked (*) are significant.

SMILES	MFC (Candida pseudotropicalis)	MFC (Candida tropicalis)	MFC (Candida albicans; strain MY 1028, YNBD)	MFC (Candida albicans; strain MY 1055, YNBD)	MFC (Candida albicans; strain MY 1750, YNBD)	Reduction of Cysts (Pneumocystis carinii; 0.15 mg/kg)	Log Mean # Cysts (± SEGM) (Pneumocystis carinii; 0.15 mg/kg)	Survivors (Pneumocystis carinii; 0.15 mg/kg)	Reduction of Cysts (Pneumocystis carinii; 0.30 mg/kg)	Log Mean # Cysts (± SEGM) (Pneumocystis carinii; 0.30 mg/kg)	Survivors (Pneumocystis carinii; 0.30 mg/kg)	Reduction of Cysts (Pneumocystis carinii; 0.60 mg/kg)	Log Mean # Cysts (± SEGM) (Pneumocystis carinii; 0.60 mg/kg)	Survivors (Pneumocystis carinii; 0.60 mg/kg)	further results
CCC(C)CC(C)CCCCCCCCC(=O)NC1CC(O)C(O)NC(=O)C2CC(O)CN2C(=O)C(C(O)CC(N)=O)NC(=O)C(C(O)C(O)c2ccc(O)cc2)NC(=O)C2CC(O)CN2C(=O)C(C(C)O)NC1=O (stereo not drawn) [Compound IA] (X1-[ξOrn(4,5-diOH)]T[Hyp][ξhTyr(βξ-OH,γξ-OH)][X2][Hyp]; lactam 1-C; configuration not given here)	4 µg/mL (≈ 3.76 µM)	1 µg/mL (≈ 0.939 µM)	2 µg/mL (≈ 1.88 µM)	2 µg/mL (≈ 1.88 µM)	4 µg/mL (≈ 3.76 µM)	88.5%	6.32 ± .17	6/6	94.6%	5.99 ± .18	5/6	97.4%	5.68 ± .19	6/6	Reduction of Cysts (Pneumocystis carinii; 1.20 mg/kg): 97.9%; Log Mean # Cysts (± SEGM) (Pneumocystis carinii; 1.20 mg/kg): 5.58 ± .11; Survivors (Pneumocystis carinii; 1.20 mg/kg): 5/6
CCC(C)CC(C)CCCCCCCCC(=O)NC1CC(O)C(O)NC(=O)C2C(O)C(O)CN2C(=O)C(C(O)CC(N)=O)NC(=O)C(C(O)C(O)c2ccc(O)cc2)NC(=O)C2CC(O)CN2C(=O)C(C(C)O)NC1=O (stereo not drawn) [Compound IB] (X1-[ξOrn(4,5-diOH)]T[Hyp][ξhTyr(βξ-OH,γξ-OH)][X2][X3]; lactam 1-C; configuration not given here)	2 µg/mL (≈ 1.85 µM)	0.12 µg/mL (≈ 0.111 µM)	0.5 µg/mL (≈ 0.462 µM)	1 µg/mL (≈ 0.925 µM)	1 µg/mL (≈ 0.925 µM)	98.7%	5.59 ± .11	6/6	99.4%	5.22 ± .10	6/6	99.1%	5.41 ± .17	6/6	Reduction of Cysts (Pneumocystis carinii; 0.03 mg/kg): 95.0%; Log Mean # Cysts (± SEGM) (Pneumocystis carinii; 0.03 mg/kg): 6.16 ± .14; Survivors (Pneumocystis carinii; 0.03 mg/kg): 6/6; Reduction of Cysts (Pneumocystis carinii; 0.07 mg/kg): 96.8%; Log Mean # Cysts (± SEGM) (Pneumocystis carinii; 0.07 mg/kg): 5.97 ± .18; Survivors (Pneumocystis carinii; 0.07 mg/kg): 6/6
